Results on 19 molecules are retold here after patent publication US20120245137A1 (Zalicus Pharmaceuticals Ltd., priority 2009, published 2012).

What all share (assay type): cell-based
In experiment [1] the target is N-type calcium channel subunits (α1B, α2δ, and β3a) (Homo sapiens, UniProt Q00975). The experiment in a line: Block of Cav2.2 channel, whole cell voltage clamp, manual and PatchXpress. The settings on record: Table 5; table follows Assay Example 3 (whole cell voltage clamp / PatchXpress); assay not given. The gist of the method:
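Percent block taken as current amplitude ratio with versus without compound, applied in rising doses; IC50 fitted where one cell received multiple doses. Protocol: 50 ms pulses to +20 mV at 0.067 Hz from […] or −90 mV holding; P/n leak subtraction, no junction-potential correction; manual and PatchXpress recordings.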

For experiment [2], the target named is human α1G T-type channels (Homo sapiens, UniProt O43497). The experiment can be described thus: T-type calcium channel block, whole cell patch clamp, α1G. The settings on record: HEK cells stably expressing human α1G; mainly non-inactivated protocol; values above 10,000 nM represented as 10000. The essentials: (§1)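 Cells are stable HEK 293 lines carrying human α1G or α1H channels, patched in whole-cell mode. Resting block comes from the non-inactivated pre-pulse; voltage-dependent block from the inactivated protocol.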

For experiment [3], the target named is human α1H T-type channels (Homo sapiens, UniProt O95180). The experiment in a line: T-type calcium channel block, whole cell patch clamp, α1H. Conditions: HEK cells stably expressing human α1H; mainly non-inactivated protocol; values above 10,000 nM represented as 10000. The essentials: as §1
human α1H T-type channels, sequence (O95180 whole entry): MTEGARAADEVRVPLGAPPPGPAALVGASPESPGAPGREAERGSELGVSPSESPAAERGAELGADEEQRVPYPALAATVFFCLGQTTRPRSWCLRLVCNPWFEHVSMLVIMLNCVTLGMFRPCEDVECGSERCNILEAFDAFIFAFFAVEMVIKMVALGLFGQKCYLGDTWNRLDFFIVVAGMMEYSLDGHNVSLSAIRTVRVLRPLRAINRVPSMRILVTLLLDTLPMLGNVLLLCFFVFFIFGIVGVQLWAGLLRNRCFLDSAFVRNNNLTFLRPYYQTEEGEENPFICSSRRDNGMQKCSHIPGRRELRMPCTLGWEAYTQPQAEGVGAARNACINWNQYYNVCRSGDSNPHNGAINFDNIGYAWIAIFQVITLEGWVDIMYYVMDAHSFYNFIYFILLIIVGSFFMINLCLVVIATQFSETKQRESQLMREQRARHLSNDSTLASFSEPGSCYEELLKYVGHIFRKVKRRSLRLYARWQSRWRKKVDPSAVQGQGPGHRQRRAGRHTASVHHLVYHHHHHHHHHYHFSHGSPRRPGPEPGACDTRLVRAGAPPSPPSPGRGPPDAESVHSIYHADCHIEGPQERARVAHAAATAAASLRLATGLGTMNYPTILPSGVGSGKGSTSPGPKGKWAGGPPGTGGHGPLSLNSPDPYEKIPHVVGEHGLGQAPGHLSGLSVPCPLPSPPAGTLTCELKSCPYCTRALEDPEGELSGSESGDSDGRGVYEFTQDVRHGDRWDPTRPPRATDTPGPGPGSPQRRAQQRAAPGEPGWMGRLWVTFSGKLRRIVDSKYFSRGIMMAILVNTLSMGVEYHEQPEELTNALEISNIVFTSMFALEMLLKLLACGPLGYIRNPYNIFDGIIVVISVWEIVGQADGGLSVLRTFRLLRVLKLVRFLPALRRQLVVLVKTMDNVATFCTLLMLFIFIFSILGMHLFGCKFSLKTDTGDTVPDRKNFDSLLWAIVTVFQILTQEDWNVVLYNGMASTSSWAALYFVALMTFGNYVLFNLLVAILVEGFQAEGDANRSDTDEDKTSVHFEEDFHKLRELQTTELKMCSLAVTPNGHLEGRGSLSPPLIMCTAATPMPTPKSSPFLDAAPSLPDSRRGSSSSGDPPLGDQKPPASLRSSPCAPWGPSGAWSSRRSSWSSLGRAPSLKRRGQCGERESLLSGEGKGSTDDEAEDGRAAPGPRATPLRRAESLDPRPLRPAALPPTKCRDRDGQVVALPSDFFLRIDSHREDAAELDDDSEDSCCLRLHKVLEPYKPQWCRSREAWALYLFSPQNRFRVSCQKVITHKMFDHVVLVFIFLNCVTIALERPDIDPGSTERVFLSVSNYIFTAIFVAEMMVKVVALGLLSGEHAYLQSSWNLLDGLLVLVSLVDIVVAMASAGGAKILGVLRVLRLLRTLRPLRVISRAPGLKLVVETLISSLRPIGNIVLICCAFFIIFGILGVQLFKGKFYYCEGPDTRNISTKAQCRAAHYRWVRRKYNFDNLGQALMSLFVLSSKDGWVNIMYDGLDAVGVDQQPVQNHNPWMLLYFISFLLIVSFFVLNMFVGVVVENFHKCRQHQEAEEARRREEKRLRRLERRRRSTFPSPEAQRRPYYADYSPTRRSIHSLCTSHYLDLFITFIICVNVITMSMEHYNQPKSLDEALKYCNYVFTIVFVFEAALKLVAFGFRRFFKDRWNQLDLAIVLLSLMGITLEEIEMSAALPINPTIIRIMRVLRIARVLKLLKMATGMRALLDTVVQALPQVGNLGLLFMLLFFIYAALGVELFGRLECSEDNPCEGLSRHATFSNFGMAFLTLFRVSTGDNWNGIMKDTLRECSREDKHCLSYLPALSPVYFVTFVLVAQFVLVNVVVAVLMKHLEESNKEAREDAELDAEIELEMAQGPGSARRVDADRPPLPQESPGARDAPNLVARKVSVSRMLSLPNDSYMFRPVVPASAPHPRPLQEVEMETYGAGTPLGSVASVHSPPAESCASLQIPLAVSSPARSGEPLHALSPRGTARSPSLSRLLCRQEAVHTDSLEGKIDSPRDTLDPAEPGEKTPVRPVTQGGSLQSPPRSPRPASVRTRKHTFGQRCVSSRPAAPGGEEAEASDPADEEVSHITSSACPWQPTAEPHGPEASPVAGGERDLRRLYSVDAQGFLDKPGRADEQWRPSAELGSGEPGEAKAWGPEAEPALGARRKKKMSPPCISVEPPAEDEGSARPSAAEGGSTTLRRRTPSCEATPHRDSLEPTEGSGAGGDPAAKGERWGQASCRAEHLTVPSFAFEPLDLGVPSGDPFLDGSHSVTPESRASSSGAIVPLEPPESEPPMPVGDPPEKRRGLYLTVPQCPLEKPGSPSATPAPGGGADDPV

human α1G T-type channels, sequence (O43497 whole entry): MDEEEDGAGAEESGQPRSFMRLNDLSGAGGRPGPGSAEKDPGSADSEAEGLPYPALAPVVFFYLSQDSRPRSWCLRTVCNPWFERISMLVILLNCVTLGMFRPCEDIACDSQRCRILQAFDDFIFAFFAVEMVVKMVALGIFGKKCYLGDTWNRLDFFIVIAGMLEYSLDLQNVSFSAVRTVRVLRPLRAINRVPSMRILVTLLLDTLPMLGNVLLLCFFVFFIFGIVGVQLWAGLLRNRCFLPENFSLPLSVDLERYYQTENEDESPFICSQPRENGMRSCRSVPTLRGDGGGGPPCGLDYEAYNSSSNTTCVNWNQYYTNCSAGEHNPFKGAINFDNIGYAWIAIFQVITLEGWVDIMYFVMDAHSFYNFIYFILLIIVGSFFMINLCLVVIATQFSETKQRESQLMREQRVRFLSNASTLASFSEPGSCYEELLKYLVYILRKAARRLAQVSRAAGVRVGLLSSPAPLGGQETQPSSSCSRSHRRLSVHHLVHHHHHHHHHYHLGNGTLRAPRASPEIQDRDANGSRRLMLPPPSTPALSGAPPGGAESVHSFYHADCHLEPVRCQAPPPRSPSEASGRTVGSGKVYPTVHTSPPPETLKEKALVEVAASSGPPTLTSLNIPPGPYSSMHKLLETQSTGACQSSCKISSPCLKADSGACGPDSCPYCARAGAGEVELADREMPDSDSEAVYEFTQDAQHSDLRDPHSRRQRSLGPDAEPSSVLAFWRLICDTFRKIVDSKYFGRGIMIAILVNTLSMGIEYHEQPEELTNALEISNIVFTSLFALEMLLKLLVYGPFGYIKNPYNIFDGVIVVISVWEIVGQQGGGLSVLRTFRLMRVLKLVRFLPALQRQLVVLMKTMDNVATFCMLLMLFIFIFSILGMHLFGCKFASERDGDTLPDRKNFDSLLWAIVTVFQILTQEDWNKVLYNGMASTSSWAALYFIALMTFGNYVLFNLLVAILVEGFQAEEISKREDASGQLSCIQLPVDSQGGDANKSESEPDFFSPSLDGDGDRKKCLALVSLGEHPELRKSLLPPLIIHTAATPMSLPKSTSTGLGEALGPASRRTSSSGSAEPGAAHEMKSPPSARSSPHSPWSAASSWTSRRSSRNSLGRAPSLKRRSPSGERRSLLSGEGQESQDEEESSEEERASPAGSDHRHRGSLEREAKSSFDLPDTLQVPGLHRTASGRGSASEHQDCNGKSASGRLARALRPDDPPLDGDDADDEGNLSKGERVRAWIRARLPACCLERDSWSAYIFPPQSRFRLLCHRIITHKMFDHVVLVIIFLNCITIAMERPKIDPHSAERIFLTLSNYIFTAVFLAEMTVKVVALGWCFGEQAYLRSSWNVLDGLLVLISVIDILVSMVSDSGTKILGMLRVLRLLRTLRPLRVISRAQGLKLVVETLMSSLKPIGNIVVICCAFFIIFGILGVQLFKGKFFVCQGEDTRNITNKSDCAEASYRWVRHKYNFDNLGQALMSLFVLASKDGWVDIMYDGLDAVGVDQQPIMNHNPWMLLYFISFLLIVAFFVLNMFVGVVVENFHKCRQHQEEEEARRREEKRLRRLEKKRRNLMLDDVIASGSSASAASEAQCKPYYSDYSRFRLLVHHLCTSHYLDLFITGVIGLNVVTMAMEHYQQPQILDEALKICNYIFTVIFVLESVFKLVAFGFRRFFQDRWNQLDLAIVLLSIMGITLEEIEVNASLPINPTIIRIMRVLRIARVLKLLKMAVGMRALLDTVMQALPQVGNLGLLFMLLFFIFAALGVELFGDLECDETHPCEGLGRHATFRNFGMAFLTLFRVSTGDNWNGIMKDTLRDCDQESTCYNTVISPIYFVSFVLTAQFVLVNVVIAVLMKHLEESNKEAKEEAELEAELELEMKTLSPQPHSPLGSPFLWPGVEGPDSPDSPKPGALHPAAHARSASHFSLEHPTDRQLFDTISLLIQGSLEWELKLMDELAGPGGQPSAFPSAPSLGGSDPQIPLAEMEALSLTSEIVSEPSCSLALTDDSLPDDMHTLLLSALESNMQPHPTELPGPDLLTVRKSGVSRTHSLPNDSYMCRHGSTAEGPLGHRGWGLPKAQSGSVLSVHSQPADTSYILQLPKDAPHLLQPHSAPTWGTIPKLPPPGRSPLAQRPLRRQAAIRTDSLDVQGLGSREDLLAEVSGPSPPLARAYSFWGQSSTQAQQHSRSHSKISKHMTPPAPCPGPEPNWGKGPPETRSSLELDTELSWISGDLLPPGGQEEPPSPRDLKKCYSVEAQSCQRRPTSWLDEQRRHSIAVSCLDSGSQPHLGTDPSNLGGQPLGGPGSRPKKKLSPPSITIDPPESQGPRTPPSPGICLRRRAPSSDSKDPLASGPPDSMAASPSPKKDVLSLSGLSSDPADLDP

`CC(C)(C)NC(=O)CN[C@H]1CC[C@@H](S(=O)(=O)c2cccc(C(F)(F)F)c2)CC1` [Compound 49, N-tert-butyl-2-((1S,4S)-4-(3-(trifluoromethyl)phenylsulfonyl)cyclohexylamino)acetamide]: the results for the IC50 in experiment [1], in experiment [2] and in experiment [3] were 200 nM, greater than 10000 nM and greater than 10000 nM, respectively.

With `O=C(N[C@H]1CC[C@@H](S(=O)(=O)c2cccc(C(F)(F)F)c2)CC1)c1ccc(Cl)c(C(F)(F)F)c1` [Compound 132, 4-chloro-3-(trifluoromethyl)-N-((1S,4S)-4-(3-(trifluoromethyl)phenylsulfonyl)cyclohexyl)benzamide], the IC50 came out at 1720 nM in experiment [1], 3670 nM in experiment [2] and 4550 nM in experiment [3].

Take `O=C(NC[C@H]1C[C@H](S(=O)(=O)c2cccc(C(F)(F)F)c2)C1)c1ccc(C(F)(F)F)cn1` [Compound 358, 5-(trifluoromethyl)-N-(((1R,3R)-3-(3-(trifluoromethyl)phenylsulfonyl)cyclobutyl)methyl)picolinamide]: the IC50 in experiment [1] is 190 nM; in experiment [2], 8370 nM; in experiment [3], greater than 10000 nM.

With `O=C(NC[C@H]1C[C@H](S(=O)(=O)c2cc(F)cc(C(F)(F)F)c2)C1)c1ccc(F)c(C(F)(F)F)c1` [Compound 389, 4-fluoro-N-(((1R,3R)-3-(3-fluoro-5-(trifluoromethyl)phenylsulfonyl)cyclobutyl)methyl)-3-(trifluoromethyl) benzamide], the IC50 in experiment [1] worked out at 270 nM; in experiment [2], 6080 nM; in experiment [3] it was 8980 nM.

For the molecule `O=C(N[C@H]1CC[C@@](F)(S(=O)(=O)c2cc(F)cc(C(F)(F)F)c2)CC1)c1ccc(F)c(C(F)(F)F)c1` [Compound 325, 4-fluoro-N-((1S,4S)-4-fluoro-4-(3-fluoro-5-(trifluoromethyl)phenylsulfonyl)cyclohexyl)-3-(trifluoromethyl)benzamide], the half-inhibitory concentration (IC50) was determined as 320 nM in experiment [1], 2400 nM in experiment [2] and 1330 nM in experiment [3].

In the case of `O=C(N[C@H]1CC[C@@](F)(S(=O)(=O)c2cccc(C(F)(F)F)c2)CC1)[C@H]1C[C@@H]1c1ccccc1` [Compound 304, (1S,2S)-N-((1S,4R)-4-fluoro-4-(3-(trifluoromethyl)phenylsulfonyl)cyclohexyl)-2-phenylcyclopropane carboxamide], the figures for the half-inhibitory concentration (IC50) in experiment [1], in experiment [2] and in experiment [3] were 230 nM, 1550 nM and 2440 nM, respectively.

As for `COc1cc(F)cc(C(=O)NC2CCC(S(=O)(=O)c3cccc(C(F)(F)F)c3)CC2)c1` (stereo not drawn) [Compound 25, 3-fluoro-5-methoxy-N-(4-(3-(trifluoromethyl)phenylsulfonyl)cyclohexyl)benzamide], the values for the IC50 in experiment [1], in experiment [2] and in experiment [3] were 360 nM, 2790 nM and 4660 nM, respectively.

For the molecule `CC1(NC(=O)c2ccc(C(F)(F)F)cc2S(C)(=O)=O)CCC(S(=O)(=O)c2cccc(C(F)(F)F)c2)CC1` (stereo not drawn) [Compound 311, N-(1-methyl-4-(3-(trifluoromethyl)phenylsulfonyl)cyclohexyl)-2-(methylsulfonyl)-4-(trifluoromethyl)benzamide], the values for the IC50 in experiment [1], in experiment [2] and in experiment [3] were 650 nM, 5080 nM and 8500 nM, respectively.

`O=S(=O)(N[C@H]1CC[C@@](F)(S(=O)(=O)c2cccc(C(F)(F)F)c2)CC1)c1ccccc1C(F)(F)F` [Compound 299, N-((1S,4S)-4-fluoro-4-(3-(trifluoromethyl)phenylsulfonyl)cyclohexyl)-2-(trifluoromethyl) benzenesulfonamide]: the results for the half-inhibitory concentration (IC50) in experiment [1], in experiment [2] and in experiment [3] were 730 nM, 640 nM and 210 nM, respectively.

Regarding `O=S(=O)(NC[C@H]1C[C@H](S(=O)(=O)c2cccc(C(F)(F)F)c2)C1)c1ccc(C(F)(F)F)cc1Cl` [Compound 423, 2-chloro-4-(trifluoromethyl)-N-(((1R,3R)-3-(3-(trifluoromethyl)phenylsulfonyl)cyclobutyl)methyl)benzenesulfonamide], the IC50 in experiment [1] is 1280 nM; in experiment [2], greater than 10000 nM; in experiment [3], greater than 10000 nM.

For `O=C(N[C@H]1CC[C@H](S(=O)(=O)c2cccc(C(F)(F)F)c2)CC1)c1ccc(F)c(C(F)(F)F)c1` [Compound 58, 4-fluoro-3-(trifluoromethyl)-N-((1R,4R)-4-(3-(trifluoromethyl)phenylsulfonyl)cyclohexyl)benzamide], the figures for the IC50 in experiment [1], in experiment [2] and in experiment [3] were 800 nM, 1850 nM and 1480 nM, respectively.

As to `O=C(N[C@H]1CC[C@@](F)(S(=O)(=O)c2cccc(C(F)(F)F)c2)CC1)c1nc2cc(C(F)(F)F)ccc2[nH]1` [Compound 85, N-((1S,4S)-4-fluoro-4-(3-(trifluoromethyl)phenylsulfonyl)cyclohexyl)-5-(trifluoromethyl)-1H-benzo[d]imidazole-2-carboxamide], the half-inhibitory concentration (IC50) in experiment [1] is 850 nM; in experiment [2], 2150 nM; in experiment [3], 1230 nM.

For `CC1(CNC(=O)c2ccc(C(F)(F)F)cn2)CCC(S(=O)(=O)c2cccc(C(F)(F)F)c2)CC1` (stereo not drawn) [Compound 208, N-((1-methyl-4-(3-(trifluoromethyl)phenylsulfonyl)cyclohexyl)methyl)-5-(trifluoromethyl)picolinamide], the IC50 in experiment [1] worked out at 590 nM; in experiment [2], 1140 nM; in experiment [3], 1110 nM.

With `O=C(CN[C@H]1C[C@H](CS(=O)(=O)c2cccc(C(F)(F)F)c2)C1)NC1CCCCC1` [Compound 353, N-cyclohexyl-2-((1R,3R)-3-((3-(trifluoromethyl)phenylsulfonyl)methyl)cyclobutylamino)acetamide], the IC50 came to 3210 nM in experiment [1], 5020 nM in experiment [2] and 1980 nM in experiment [3].

In the case of `Cn1nc(C(F)(F)F)cc1C(=O)N[C@H]1C[C@H](CS(=O)(=O)c2cccc(C(F)(F)F)c2)C1` [Compound 350, 1-methyl-3-(trifluoromethyl)-N-((1R,3R)-3-((3-(trifluoromethyl)phenylsulfonyl)methyl)cyclobutyl)-1H-pyrazole-5-carboxamide], the figures for the IC50 in experiment [1], in experiment [2] and in experiment [3] were 1410 nM, greater than 10000 nM and greater than 10000 nM, respectively.

In the case of `CC1(S(=O)(=O)c2cccc(C(F)(F)F)c2)CCC(NC(=O)c2cc(F)cc(Cl)c2)CC1` (stereo not drawn) [Compound 19, 3-chloro-5-fluoro-N-(4-methyl-4-(3-(trifluoromethyl)phenylsulfonyl)cyclohexyl)benzamide], the IC50 in experiment [1] was 60 nM; in experiment [2] it was 5240 nM; in experiment [3], 3020 nM.

Regarding `CC1(C(=O)N[C@H]2CC[C@@](F)(S(=O)(=O)c3cccc(C(F)(F)F)c3)CC2)CC1` [Compound 303, N-((1S,4S)-4-fluoro-4-(3-(tritluoromethyl)phenylsulfonyl)cyclohexyl)-1-methylcyclopropane carboxamide], the IC50 in experiment [1] was 180 nM; in experiment [2], 4340 nM; in experiment [3] it was 4150 nM.

As for `CS(=O)(=O)c1nc(C(F)(F)F)ccc1C(=O)N[C@H]1CC[C@@](F)(S(=O)(=O)c2cccc(OC(F)(F)F)c2)CC1` [Compound 257], the IC50 in experiment [1] came out at 680 nM; in experiment [2], 6900 nM; in experiment [3] it was 9020 nM.

With `CS(=O)(=O)c1ccc(C(=O)N[C@H]2CC[C@@](F)(S(=O)(=O)c3cccc(C(F)(F)F)c3)CC2)cc1` [Compound 271, N-((1S,4S)-4-fluoro-4-(3-(trifluoromethyl)phenylsulfonyl)cyclohexyl)-4-(methylsulfonyl)benzamide], the IC50 in experiment [1] worked out at 8160 nM; in experiment [2], 2630 nM; in experiment [3], 1650 nM.
